Experimental data from ChEMBL document CHEMBL1201862, “PubChem BioAssay data set” (2004).
The source made the active and inactive calls. Cut-off read from the data, not from the text of the source: actives have a measured IC50 and inactives only a lower limit.

Molecular target: Envelope glycoprotein gp160 (Human immunodeficiency virus 1, UniProt Q6QLK5)
Test: inhibitors of HIV fusion peptide binding, primary screen, biochemical, uHTS, fluorescence dequenching (AID 1986)

Envelope glycoprotein gp160, sequence (Q6QLK5 whole entry, the tested form may be a part): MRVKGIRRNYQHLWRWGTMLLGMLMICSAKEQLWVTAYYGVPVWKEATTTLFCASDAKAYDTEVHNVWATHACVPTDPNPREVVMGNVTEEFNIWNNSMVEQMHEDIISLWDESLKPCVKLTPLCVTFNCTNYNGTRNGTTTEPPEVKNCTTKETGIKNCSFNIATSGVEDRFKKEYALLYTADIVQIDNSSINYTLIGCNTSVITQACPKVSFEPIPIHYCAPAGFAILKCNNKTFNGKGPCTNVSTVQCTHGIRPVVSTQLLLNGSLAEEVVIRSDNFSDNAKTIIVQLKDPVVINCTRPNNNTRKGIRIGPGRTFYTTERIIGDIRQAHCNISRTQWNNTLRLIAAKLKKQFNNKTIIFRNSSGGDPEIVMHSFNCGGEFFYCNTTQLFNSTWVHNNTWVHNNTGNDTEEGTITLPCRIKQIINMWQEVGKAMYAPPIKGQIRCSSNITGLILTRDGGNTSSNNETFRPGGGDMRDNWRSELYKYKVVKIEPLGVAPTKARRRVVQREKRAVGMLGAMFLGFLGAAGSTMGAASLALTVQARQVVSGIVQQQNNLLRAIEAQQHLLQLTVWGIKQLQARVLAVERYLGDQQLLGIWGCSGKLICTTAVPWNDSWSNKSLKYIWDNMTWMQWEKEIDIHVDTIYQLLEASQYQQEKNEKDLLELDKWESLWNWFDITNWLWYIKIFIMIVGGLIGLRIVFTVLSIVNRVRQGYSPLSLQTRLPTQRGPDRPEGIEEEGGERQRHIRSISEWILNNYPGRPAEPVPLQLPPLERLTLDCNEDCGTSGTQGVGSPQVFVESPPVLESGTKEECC

SMILES | IC50
COc1ccc(NC(=O)c2cnn3c(O)cc(C4CCN(C(=O)OC(C)(C)C)CC4)nc23)cc1Cl | 16.6 µM (active)
O=C(O)CSCC(=O)N(Cc1ccccc1)c1nc(-c2ccccc2)c(-c2ccccc2)s1 | 13.3 µM (active)
